Test results from patent US20180009764A1, “METHOD FOR TREATING MACROPHAGE MIGRATION INHIBITORY FACTOR (MIF)-IMPLICATED DISEASES AND CONDITIONS WITH IODO PYRIMIDINE DERIVATIVES” (UNIVERSITY OF LOUISVILLE RESEARCH FOUNDATION, INC., priority 2009, published 2018).

Tested on: p53
Assay: p53 up regulation, p53 luciferase assay
Type: cell-based
Details: 10 μM; FIG. 5
Protocol: The up regulation of p53 was determined using a commercially available p53 luciferase assay kit. 1×10^5 cells/ml were plated in a 24 well plate and allowed to adhere overnight. MIF antagonists were added to the cells at the indicated concentrations for 16 hours and transiently co-transfected with 0.125 μg/well of p53-responsive luciferase promoter plasmid (Promega, Madison, Wis.) together with 0.0125 μg/well Renilla pRL-null plasmid (Promega) using Lipofectamine (Invitrogen) transfection reagent. After 24 hrs, Firefly and Renilla luciferase activities were measured by the Dual Luciferase Reporter Assay System (Promega, Madison, Wis.) on a TD-20/20 luminometer (Turner Designs).

With Fc1ccccc1-c1cc(I)ncn1 [ACT-MIF-003, 4-Iodo-6-(2-fluorophenyl)pyrimidine] the p53 regulation was “implicated in p53 regulation”.
